Source: US20080070954A1, “Acylurea Connected And Sulfonylurea Connected Hydroxamates” (S*BIO PTE LTD., priority 2003, published 2008)

Assays:
[1] = target: T1, HDAC1 enzyme (recombinant GST-HDAC1) (Homo sapiens, UniProt Q13547); test: In vitro HDAC assay for determination of IC50 values (BIOMOL fluorescent-based), HDAC1; type: biochemical; settings: 600 nM HDAC1 enzyme, 500 μM Flur de lys generic substrate, 2 h room temperature
T1 construct: Amplification of human HDAC1 and HDAC8 coding region from this cDNA library; made in house; host or cells: SF9 insect cells (baculovirus, pDEST20 vector)
T1 sequence (Q13547 whole entry): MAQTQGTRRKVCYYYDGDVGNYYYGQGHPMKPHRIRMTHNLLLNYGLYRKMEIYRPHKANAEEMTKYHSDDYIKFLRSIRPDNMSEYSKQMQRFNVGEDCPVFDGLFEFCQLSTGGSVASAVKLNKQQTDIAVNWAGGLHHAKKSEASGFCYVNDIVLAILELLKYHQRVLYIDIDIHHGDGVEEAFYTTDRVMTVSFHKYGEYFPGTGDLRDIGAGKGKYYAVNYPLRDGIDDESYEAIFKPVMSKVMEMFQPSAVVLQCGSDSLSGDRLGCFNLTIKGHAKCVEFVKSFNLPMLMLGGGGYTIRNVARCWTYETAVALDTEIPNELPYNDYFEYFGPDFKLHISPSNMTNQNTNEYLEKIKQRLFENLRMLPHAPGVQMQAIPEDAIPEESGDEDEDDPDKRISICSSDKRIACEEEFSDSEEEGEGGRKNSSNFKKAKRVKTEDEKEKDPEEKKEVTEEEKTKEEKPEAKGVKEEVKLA
Description: (§1) Human cDNA library was prepared using cultured SW620 cells. Amplification of human HDAC1 and HDAC8 coding region from this cDNA library was cloned separately into the baculovirus expression pDEST20 vector and pFASTBAC vector respectively (GATEWAY Cloning Technology, Invitrogen Pte Ltd). The pDEST20-HDAC1 and pFASTBAC-HTGST-HDAC8 constructs were confirmed by DNA sequencing. Recombinant baculovirus was prepared using the Bac-To-Bac method following the manufacturer's instruction (Invitrogen Pte Ltd). Baculovirus titer was determined by plaque assay to be about 10^8 PFU/ml.
(§2) Expression of GST-HDAC1 or HTGST-HDAC8 was done by infecting SF9 cells (Invitrogen Pte Ltd) with pDEST20-HDAC1 or pFASTBAC-GST-HDAC8 baculovirus at MOI=1 for 48 h. Soluble cell lysate was incubated with pre-equilibrated Glutathione Sepharose 4B beads (Amersham) at 4° C. for 2 h. The beads were washed with PBS buffer for 3 times. The GST-HDAC1 protein or GST-HDAC8 protein was eluted by elution buffer containing 50 mM Tris, pH8.0, 150 mM NaCl, 1% Triton X-100 and 10 mM or 20 mM reduced Glutathione. The purified GST-HDAC1 protein or purified GST-HDAC8 protein was dialyzed with HDAC storage buffer containing 10 mM Tris, pH7.5, 100 mM NaCl and 3 mM MgCl2. 20% Glycerol was added to purified GST-HDAC1 protein or purified GST-HDAC8 before storage at −80° C.
The assay has been carried out in 96 well format and the BIOMOL fluorescent-based HDAC activity assay has been applied. The reaction composed of assay buffer, containing 25 mM Tris pH 7.5, 137 mM NaCl, 2.7 mM KCl, 1 mM MgCl2, 1 mg/ml BSA, tested compounds, 500 nM HDAC8 enzyme or 600 nM HDAC1 enzyme, 200 μM Flur de lys p53 peptide substrate for HDAC8 enzyme or 500 μM Flur de lys generic substrate for HDAC1 enzyme and subsequently was incubated at room temperature for 2 h. Flur de lys Developer was added and the reaction was incubated for 10 min. Briefly, deacetylation of the substrate sensitizes it to the developer, which then generates a fluorophore. The fluorophore is excited with 360 nm light and the emitted light (460 nm) is detected on a fluorometric plate reader (Tecan Ultra Microplate detection system, Tecan Group Ltd.).
(§3) The analytical software, Prism 3.0® (GraphPad Software Inc) has been used to generate IC50 from a series of data.

[2] = target: T2, HDAC8 enzyme (recombinant GST-HDAC8) (Homo sapiens, UniProt Q9BY41); test: In vitro HDAC assay for determination of IC50 values (BIOMOL fluorescent-based), HDAC8; type: biochemical; settings: 500 nM HDAC8 enzyme, 200 μM Flur de lys p53 peptide substrate, 2 h room temperature
T2 construct: Amplification of human HDAC1 and HDAC8 coding region from this cDNA library; made in house; host or cells: SF9 insect cells (baculovirus, pFASTBAC vector)
T2 sequence (Q9BY41 1-377): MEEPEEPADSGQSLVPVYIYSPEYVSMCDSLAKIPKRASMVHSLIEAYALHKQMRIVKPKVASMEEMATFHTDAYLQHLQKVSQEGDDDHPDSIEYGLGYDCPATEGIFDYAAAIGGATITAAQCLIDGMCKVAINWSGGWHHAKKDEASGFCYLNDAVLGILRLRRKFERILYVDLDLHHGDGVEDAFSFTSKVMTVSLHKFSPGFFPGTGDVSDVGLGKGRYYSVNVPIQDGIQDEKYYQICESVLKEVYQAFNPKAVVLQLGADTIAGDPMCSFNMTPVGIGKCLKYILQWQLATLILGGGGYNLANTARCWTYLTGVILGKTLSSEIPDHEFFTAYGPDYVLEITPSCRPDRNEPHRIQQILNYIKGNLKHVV
Description: as §1, with “The pDEST20-HDAC1 and pFASTBAC-HTGST-HDAC8 constructs were confirmed by DNA sequencing.” left out, “Ltd).” for “Ltd). Baculovirus titer was determined by plaque assay to be about 10^8 PFU/ml.”
as §2
The assay has been carried out in 96 well format and the BIOMOL fluorescent-based HDAC activity assay has been applied. […] Flur de lys Developer was added and the reaction was incubated for 10 min. Briefly, deacetylation of the substrate sensitizes it to the developer, which then generates a fluorophore. The fluorophore is excited with 360 nm light and the emitted light (460 nm) is detected on a fluorometric plate reader (Tecan Ultra Microplate detection system, Tecan Group Ltd.).
as §3

[3] = system: acetylated histone H4 in Colo205 cells; test: Histone acetylation assay (western blot), histone H4; type: cell-based, human; design: key: “Active” means accumulation of acetylated histone was observed when compared with control (without compound); settings: Colo205 cells, 0.1, 1, 5 and 10 μM, 24 h
Description: (§4) A hallmark of histone deacetylase (HDAC) inhibition is the increase in the acetylation level of histones. Histone acetylation, including H3, H4, H2A and H2B can be detected by immuno-blotting (western-blot). Colo205 cells, approximately 1.5×10^6 cells/10 cm dish, were seeded in the previously described medium, cultivated for 24 h and subsequently treated with HDAC inhibitory agents at 0.1, 1, 5 and 10 μM final concentration. After 24 h, cells were harvested and lysed according to the instruction from Sigma Mammalian Cell Lysis Kit. The protein concentration was quantified using BCA method (Sigma Pte Ltd). The protein lysate was separated using 4-12% bis-tris SDS-PAGE gel (Invitrogen Pte Ltd) and was transferred onto PVDF membrane (BioRad Pte Ltd). The membrane was probed separately using primary antibody specific for acetylated H3, acetylated H4 or acetylated H2A (Upstate Pte Ltd). The detection antibody, goat anti rabbit antibody conjugated with Horse radish peroxidase (HRP) was used according to the manufacturer instruction (Pierce Pte Ltd). After removing the detection antibody from the membrane, an enhanced chemiluminescent substrate for detection of HRP (Pierce Pte Ltd) was added onto the membrane. After removing the substrate, the membrane was exposed to an X-ray film (Kodak) for 1 sec-20 mins. The X-ray film was developed using the X-ray film processor. The density of each band observed on the developed film could be analysed using UVP Bioimaging software (UVP, Inc, Upland, Calif.). The values were then normalized against the density of actin in the corresponding samples to obtain the expression of the protein.

[4] = system: acetylated histone H3 in Colo205 cells; test: Histone acetylation assay (western blot), histone H3; type: cell-based, human; design: key: “Active” means accumulation of acetylated histone was observed when compared with control (without compound); settings: Colo205 cells, 0.1, 1, 5 and 10 μM, 24 h
Description: as §4

[5] = system: Colo205 human colon cancer cell line; test: Cell-based proliferation assay for determination of GI50 values, Colo205; settings: COLO 205, Colo205 cells, 96 h treatment, cyquant assay, read-out: Colo 205 Gl50
Description: (§5) Human colon cancer cell lines (Colo205) and human breast cancer cell lines (MDA-MB435 and MDA-MB231) were obtained from ATCC. Colo205 cells were cultivated in RPMI 1640 containing 2 mM L-Glutamine, 5% FBS, 1.0 mM Na Pyruvate. MDA-MB231 cells were cultivated in RPMI 1640 containing 2 mM L-glutamine, 5% FBS. MDA-MB435 cells were cultivated in DMEM containing 2 mM L-Glutamine, 5% FBS. Colo205 cells were seeded in 96-wells plate at 5000 cells per well respectively. MDA-MB435 and MDA-MB231 cells were seeded in 96-wells plate at 6000 cells per well. The plates were incubated at 37° C., 5% CO2, for 24 h. Cells were treated with compounds at various concentrations for 96 h. Cell growth was then monitored using cyquant cell proliferation assay (Invitrogen Pte Ltd). Dose response curves were plotted to determine GI50 values for the compounds using XL-fit (ID Business Solution, Emeryville, Calif.).

[6] = system: MDA-MB231 human breast cancer cell line; test: Cell-based proliferation assay for determination of GI50 values, MDA-MB231; settings: MDA-MB231 cells, 96 h treatment, cyquant assay
Description: as §5

[7] = system: MDA-MB435 human breast cancer cell line; test: Cell-based proliferation assay for determination of GI50 values, MDA-MB435; settings: MDA-MB435 cells, 96 h treatment, cyquant assay
Description: as §5

[8] = system: acetylated histone H2B in Colo205 cells; test: Histone acetylation assay (western blot), histone H2B; type: cell-based, human; design: key: “Active” means accumulation of acetylated histone was observed when compared with control (without compound); settings: Colo205 cells, 0.1, 1, 5 and 10 μM, 24 h
Description: as §4, with “After removing the substrate, the membrane was exposed to an X-ray film (Kodak) for 1 sec-20 mins. The X-ray film was developed using the X-ray film processor.” left out, “The values were then normalized against the density of actin in the corresponding samples to obtain the expression of the protein.” left out

[9] = system: acetylated histone H2A in Colo205 cells; test: Histone acetylation assay (western blot), histone H2A; type: cell-based, human; design: key: “Active” means accumulation of acetylated histone was observed when compared with control (without compound); settings: Colo205 cells, 0.1, 1, 5 and 10 μM, 24 h
Description: as §4, with “After removing the substrate, the membrane was exposed to an X-ray film (Kodak) for 1 sec-20 mins. The X-ray film was developed using the X-ray film processor.” left out, “The values were then normalized against the density of actin in the corresponding samples to obtain the expression of the protein.” left out

Row | Compound | IC50 [1] | IC50 [2] | Histone 4 acetylation [3] | Histone 3 acetylation [4] | GI50 [5] | MDA-MB231 Gl50 [6] | MDA-MB435 Gl50 [7] | Histone 2B acetylation [8] | Hisotne 2A acetylation [9]
1 | Cc1ccc(S(=O)(=O)NC(=O)NCCCCCC(=O)NO)cc1 [Example 1, 6-[3-(toluene-4-sulfonyl)ureido]-hexanoic acid hydroxyamide] | > 100000 nM | 790 nM |  |  |  |  |  |  | 
2 | Cc1ccc(S(=O)(=O)NC(=O)Nc2ccc(/C=C/C(=O)NO)cc2)cc1 [Example 2] | 2610 nM | 40 nM |  |  |  |  |  |  | 
3 | Cc1ccc(S(=O)(=O)NC(=O)NCc2ccc(C(=O)NO)cc2)cc1 [Example 4] | 2920 nM | 49 nM |  |  |  |  |  |  | 
4 | Cc1ccc(S(=O)(=O)NC(=O)Nc2ccc(CC(=O)NO)cc2)cc1 [Example 5, N-Hydroxy-2-{4-[3-(toluene-4-sulfonyl)ureido]-phenyl}acetamide] | > 100000 nM | 140 nM |  |  |  |  |  |  | 
5 | O=C(NCc1ccc(C(=O)NO)cc1)NC(=O)c1ccccc1 [Example 6, 4-(3-Benzoyl-ureidomethyl)-N-hydroxy-benzamide] | 130 nM | 41 nM | Active | Active | 1910 nM | 1.92 µM | 1.24 µM |  | 
6 | O=C(Cc1cccc(NC(=O)NC(=O)c2ccccc2)c1)NO [Example 7, 2-[3-(3-Benzoyl-ureido)-phenyl]-N-hydroxy-acetamide] | > 100000 nM | 150 nM |  |  |  |  |  |  | 
7 | O=C(Cc1ccc(NC(=O)NC(=O)c2ccccc2)cc1)NO [Example 8, 2-[4-(3-Benzoyl-ureido)-phenyl]-N-hydroxy-acetamide] | > 100000 nM | 72 nM |  |  |  |  |  |  | 
8 | O=C(CCCCCNC(=O)NC(=O)c1ccccc1)NO [Example 10, 6-(3-Benzoyl-ureido)-hexanoic acid hydroxyamide] | 56 nM | 1070 nM | Active | Active | 1890 nM | 1.03 µM | 1.79 µM | Active | Active
9 | O=C(CCCCCCCNC(=O)NC(=O)c1ccccc1)NO [Example 12, 8-(3-Benzoyl-ureido)-octanoic acid hydroxyamide] | 98 nM | 400 nM |  |  | 8030 nM |  |  |  | 
10 | O=C(CCCCCCNC(=O)NC(=O)c1ccccc1)NO [Example 13, 7-(3-Benzoyl-ureido)-heptanoic acid hydroxyamide] | 150 nM | 270 nM |  | Active | 2680 nM |  |  |  | 
11 | Cc1ccc(S(=O)(=O)NC(=O)NCCCCCCCC(=O)NO)cc1 [Example 14] | 1130 nM | 51 nM |  |  |  |  |  |  | 
12 | O=C(CCCCCNC(=S)NC(=O)c1ccccc1)NO [Example 18, 6-(3-Benzoyl-thioureido)-hexanoic acid hydroxyamide] | 27 nM | 520 nM |  | Active | 2670 nM |  |  |  | 
13 | O=C(/C=C/c1ccc(CN(CCc2ccccc2)C(=O)NC(=O)c2ccccc2)cc1)NO [Example 23, 3-[4-(3-Benzoyl-1-phenethyl-ureidomethyl)-phenyl]-N-hydroxy-acrylamide] | 12 nM | 200 nM |  | Active | 150 nM | 0.26 µM |  |  | 
14 | O=C(/C=C/c1ccc(CN(CCc2ccc(Br)cc2)C(=O)NC(=O)c2ccccc2)cc1)NO [Example 25, 3-(4-{3-Benzoyl-1-[2-(4-bromo-phenyl)-ethyl]-ureidomethyl}-phenyl)-N-hydroxy-acrylamide] |  |  |  |  | 160 nM |  |  |  | 
15 | O=C(NO)c1ccc(CN2CCN(C(=O)NC(=O)c3ccccc3)CC2)cc1 [Example 30, 4-(4-Benzoylaminocarbonyl-piperazin-1-ylmethyl)-N-hydroxy-benzamide] | 2870 nM | 460 nM |  |  |  |  |  |  | 
16 | O=C(/C=C/c1ccc(CN(CCN2CCCCC2)C(=O)NC(=O)c2ccccc2)cc1)NO [Example 46, 3-{4-[3-Benzoyl-1-(2-piperidin-1-yl-ethyl)-ureidomethyl]-phenyl}-N-hydroxy-acrylamide] | 48 nM | 230 nM |  | Active | 630 nM |  |  |  | 
17 | O=C(/C=C/c1ccc(CN(CCN2CCCC2)C(=O)NC(=O)c2ccccc2)cc1)NO [Example 47, 3-{4-[3-Benzoyl-1-(2-pyrrolidin-1-yl-ethyl)-ureidomethyl]-phenyl}-N-hydroxy-acrylamide] | 24 nM | 250 nM |  |  |  |  |  |  | 
